# pIC50: −log10 of the molar value.
# How the values were obtained:
# [1] = Cytotoxicity against mouse BV-2 cells assessed as reduction in cell viability by crystal violet staining based assay; format: toxicity
# [2] = system: BV-2; assay: Anti-neuroinflammatory activity in mouse BV-2 cells assessed as inhibition of LPS-induced NO production incubated for 24 hrs by microplate reader analysis; format: functional, cell-based; conditions: BV-2, 24 h
# [3] = Therapeutic index, ratio of IC50 for cytotoxicty against mouse BV-2 cells assessed as reduction in cell viability by crystal violet staining based assay to IC50 for nti-neuroinflammatory activity in mouse BV-2 cells assessed as inhibition of LPS-induced NO production; format: toxicity; conditions: read-out: Ratio IC50
Compound,pIC50 [1],pIC50 [2],selectivity ratio [3]
C=CCOc1cc(CCCCC)cc(OCC=C)c1[C@@H]1C=C(C)CC[C@H]1C(=C)C,< 3.70,,
C=C(C)[C@@H]1CCC(C)=C[C@H]1c1c(O)cc(CCCCCCCCCCCC)cc1O,< 3.70,,
C=C(C)[C@@H]1CCC(C)=C[C@H]1c1c(OCCC)cc(CCCCC)cc1OCCC,< 3.70,,
C#CCOc1cc(CCCCC)cc(OCC#C)c1[C@@H]1C=C(C)CC[C@H]1C(=C)C,< 3.70,3.70,
C=C(C)[C@@H]1CCC(C)=C[C@H]1c1c(O)cc(CCCCC)cc1OCC,3.75,,1.1
C=C(C)[C@@H]1CCC(C)=C[C@H]1c1c(OC)cc(CCCCC)cc1OC,< 3.70,< 4.70,
